# Reference: patent US20260158009A1 (GENZYME CORPORATION, priority 2023, published 2026)
# Tests used:
# U937 cells = assay: Cellular assay in U937 cells: activity of RIPK1 inhibitors on TNFα/zVAD.fmk-induced cell death (necroptosis), CellTiter 96 AQueous (MTS) readout; type: cell-based; settings: Homo sapiens, U-937
# Outline: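 Necroptosis was measured by viable-cell MTS reduction (4 h, absorbance 490 nm) after overnight (18–24 h) 37° C culture. Cell suspensions of U937 cells carried TNFα (100 ng/ml) plus zVAD.fmk (50 μM) before compound was added. A 10-point curve (10 μM–0.26 nM or 1 μM–0.07 nM) was run in duplicate, normalised to the control lacking TNFα/zVAD.fmk.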
# [1] = molecular target: T1, hRIPK1 (aa 1-375) fusion protein (Homo sapiens, UniProt Q13546); assay: ADP-Glo kinase assay: catalytic activity of RIPK1 (autophosphorylation, conversion of ATP to ADP); type: biochemical
# T1 construct: hRIPK1 (aa 1-375) fusion protein
# T1 sequence (Q13546 1-375): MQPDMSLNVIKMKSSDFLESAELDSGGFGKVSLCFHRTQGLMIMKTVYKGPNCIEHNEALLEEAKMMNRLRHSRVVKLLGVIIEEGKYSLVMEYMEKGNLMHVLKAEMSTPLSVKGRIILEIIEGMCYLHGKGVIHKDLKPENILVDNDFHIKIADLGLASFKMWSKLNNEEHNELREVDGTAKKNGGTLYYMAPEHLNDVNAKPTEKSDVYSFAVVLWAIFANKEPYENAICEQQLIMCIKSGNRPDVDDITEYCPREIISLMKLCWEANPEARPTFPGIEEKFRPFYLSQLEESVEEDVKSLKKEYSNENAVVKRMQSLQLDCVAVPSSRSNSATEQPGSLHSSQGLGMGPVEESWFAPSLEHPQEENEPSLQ
# Outline: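 The readout was ADP-Glo luminescence after a 240 min rt autophosphorylation reaction with 50 μM ATP, following 30 min preincubation of 3.6 μg/ml hRIPK1 (aa 1-375) fusion with compound at 33300-1.69 nM final in 1% DMSO. Values came from Levenberg-Marquardt nonlinear fits.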
SMILES,IC50 [1] [nM],IC50 (U937 cells) [nM]
"Cc1nccn1-c1cc(F)cc(C[C@H]2CC[C@H](C(=O)N3OCC[C@H]3c3cc(F)cc(F)c3)CC2)c1 [compound 208, trans-[(3S)-3-(3,5-difluorophenyl)isoxazolidin-2-yl]-[4-[[3-fluoro-5-(2-methylimidazol-1-yl)phenyl]methyl]cyclohexyl]methanone]",24,12
"Cc1nccn1-c1cc(F)cc(C[C@H]2CC[C@H](C(=O)N3OCC[C@H]3c3cnccn3)CC2)c1 [compound 209, trans-[4-[[3-fluoro-5-(2-methylimidazol-1-yl)phenyl]methyl]cyclohexyl]-[(3S)-3-pyrazin-2-ylisoxazolidin-2-yl]methanone]",22,54
"Cc1nccn1-c1cc(F)cc(C[C@H]2CC[C@H](C(=O)N3OCC[C@H]3c3cncc(C#N)c3)CC2)c1 [compound 210, trans-5-[(3S)-2-[4-[[3-fluoro-5-(2-methylimidazol-1-yl)phenyl]methyl]cyclohexanecarbonyl]isoxazolidin-3-yl]pyridine-3-carbonitrile]",17,25
"O=C1NCc2c(F)cc(C[C@H]3CC[C@H](C(=O)N4OCC[C@H]4c4ccc(F)cc4)CC3)cc21 [compound 212, trans-4-fluoro-6-[[4-[(3S)-3-(4-fluorophenyl)isoxazolidine-2-carbonyl]cyclohexyl]methyl]isoindolin-1-one]",23,10
"Cn1nccc1-c1cc(F)cc(C[C@H]2CC[C@H](C(=O)N3OCC[C@H]3c3cc(F)cc(C#N)c3)CC2)c1 [compound 214, trans-3-fluoro-5-[(3S)-2-[4-[[3-fluoro-5-(2-methylpyrazol-3-yl)phenyl]methyl]cyclohexanecarbonyl]isoxazolidin-3-yl]benzonitrile]",20,4
"N#Cc1ccc2cnn(C[C@H]3CC[C@H](C(=O)N4OCC[C@H]4c4ccccn4)CC3)c2c1 [compound 215, trans-1-[[4-[(3S)-3-(2-pyridyl)isoxazolidine-2-carbonyl]cyclohexyl]methyl]indazole-6-carbonitrile]",20,7
"Cc1nccn1-c1cc(F)cc(C[C@H]2CC[C@H](C(=O)N3OCC[C@H]3c3cc(F)cc(C#N)c3)CC2)c1 [compound 216, trans-3-fluoro-5-[(3S)-2-[4-[[3-fluoro-5-(2-methylimidazol-1-yl)phenyl]methyl]cyclohexanecarbonyl]isoxazolidin-3-yl]benzonitrile]",15,10
"Cc1nccn1-c1cc(F)cc(C[C@H]2CC[C@H](C(=O)N3OCC[C@H]3c3cncc(F)c3)CC2)c1 [compound 220, trans-[4-[[3-fluoro-5-(2-methylimidazol-1-yl)phenyl]methyl]cyclohexyl]-[(3S)-3-(5-fluoro-3-pyridyl)isoxazolidin-2-yl]methanone]",26,12
"Cc1nc2ccc(C[C@H]3CC[C@H](C(=O)N4OCC[C@H]4c4cnccn4)CC3)cn2n1 [compound 222, trans-[4-[(2-methyl-[1,2,4]triazolo[1,5-a]pyridin-6-yl)methyl]cyclohexyl]-[(3S)-3-pyrazin-2-ylisoxazolidin-2-yl]methanone]",37,48
"Cc1nc2ccc(C[C@H]3CC[C@H](C(=O)N4OCC[C@H]4c4cc(F)cc(F)c4)CC3)cn2n1 [compound 223, trans-[(3S)-3-(3,5-difluorophenyl)isoxazolidin-2-yl]-[4-[(2-methyl-[1,2,4]triazolo[1,5-a]pyridin-6-yl)methyl]cyclohexyl]methanone]",19,5
"Cc1cn2cc(C[C@H]3CC[C@H](C(=O)N4OCC[C@H]4c4cc(F)cc(C#N)c4)CC3)ccc2n1 [compound 225, trans-3-fluoro-5-[(3S)-2-[4-[(2-methylimidazo[1,2-a]pyridin-6-yl)methyl]cyclohexanecarbonyl]isoxazolidin-3-yl]benzonitrile]",19,7
"Cn1cc(C[C@H]2CC[C@H](C(=O)N3OCC[C@H]3c3cncc(C#N)c3)CC2)cn1 [compound 235, trans-5-[(3S)-2-[4-[(1-methylpyrazol-4-yl)methyl]cyclohexanecarbonyl]isoxazolidin-3-yl]pyridine-3-carbonitrile]",35,152
"Cn1cc(C[C@H]2CC[C@H](C(=O)N3OCC[C@H]3c3cc(F)cc(F)c3)CC2)cn1 [compound 236, trans-[(3S)-3-(3,5-difluorophenyl)isoxazolidin-2-yl]-[4-[(1-methylpyrazol-4-yl)methyl]cyclohexyl]methanone]",20,4
"Cn1nccc1C[C@H]1CC[C@H](C(=O)N2OCC[C@H]2c2cnccn2)CC1 [compound 238, trans-[4-[(2-methylpyrazol-3-yl)methyl]cyclohexyl]-[(3S)-3-pyrazin-2-ylisoxazolidin-2-yl]methanone]",41,257
"Cc1nc(C[C@H]2CC[C@H](C(=O)N3OCC[C@H]3c3cnccn3)CC2)cs1 [compound 240, trans-[4-[(2-methylthiazol-4-yl)methyl]cyclohexyl]-[(3S)-3-pyrazin-2-ylisoxazolidin-2-yl]methanone]",27,52

# More lines, in order of falling IC50 [1], values ahead:
IC50 [1] [nM],SMILES,IC50 (U937 cells) [nM]
44,"Cc1cn2cc(C[C@H]3CC[C@H](C(=O)N4OCC[C@H]4c4cnccn4)CC3)ccc2n1 [compound 226, trans-[4-[(2-methylimidazo[1,2-a]pyridin-6-yl)methyl]cyclohexyl]-[(3S)-3-pyrazin-2-ylisoxazolidin-2-yl]methanone]",40
41,"COc1cncc([C@@H]2CCON2C(=O)[C@H]2CC[C@H](Cn3ncc4cc(C#N)ccc43)CC2)n1 [compound 217, trans-1-[[4-[(3S)-3-(6-methoxypyrazin-2-yl)isoxazolidine-2-carbonyl]cyclohexyl]methyl]indazole-5-carbonitrile]",12
35,"Cc1nnc2ccc(C[C@H]3CC[C@H](C(=O)N4OCC[C@H]4c4cc(F)cc(C#N)c4)CC3)cn12 [compound 224, trans-3-fluoro-5-[(3S)-2-[4-[(3-methyl-[1,2,4]triazolo[4,3-a]pyridin-6-yl)methyl]cyclohexanecarbonyl]isoxazolidin-3-yl]benzonitrile]",17
27,"Cc1nc(C[C@H]2CC[C@H](C(=O)N3OCC[C@H]3c3cc(F)cc(C#N)c3)CC2)cs1 [compound 239, trans-3-fluoro-5-[(3S)-2-[4-[(2-methylthiazol-4-yl)methyl]cyclohexanecarbonyl]isoxazolidin-3-yl]benzonitrile]",5
23,"Cc1cn2cc(C[C@H]3CC[C@H](C(=O)N4OCC[C@H]4c4cc(F)cc(F)c4)CC3)ccc2n1 [compound 227, trans-[(3S)-3-(3,5-difluorophenyl)isoxazolidin-2-yl]-[4-[(2-methylimidazo[1,2-a]pyridin-6-yl)methyl]cyclohexyl]methanone]",5
23,"Cn1nccc1C[C@H]1CC[C@H](C(=O)N2OCC[C@H]2c2cc(F)cc(C#N)c2)CC1 [compound 237, trans-3-fluoro-5-[(3S)-2-[4-[(2-methylpyrazol-3-yl)methyl]cyclohexanecarbonyl]isoxazolidin-3-yl]benzonitrile]",66
22,"Cc1nc2ccc(C[C@H]3CC[C@H](C(=O)N4OCC[C@H]4c4cc(F)cc(C#N)c4)CC3)cn2n1 [compound 221, trans-3-fluoro-5-[(3S)-2-[4-[(2-methyl-[1,2,4]triazolo[1,5-a]pyridin-6-yl)methyl]cyclohexanecarbonyl]isoxazolidin-3-yl]benzonitrile]",19
20,"N#Cc1ccc2c(cnn2C[C@H]2CC[C@H](C(=O)N3OCC[C@H]3c3cnccn3)CC2)c1 [compound 218, trans-1-[[4-[(3S)-3-pyrazin-2-ylisoxazolidine-2-carbonyl]cyclohexyl]methyl]indazole-5-carbonitrile]",13
19,"O=C1NCc2c(F)cc(C[C@H]3CC[C@H](C(=O)N4OCC[C@H]4c4cnccn4)CC3)cc21 [compound 213, trans-4-fluoro-6-[[4-[(3S)-3-pyrazin-2-ylisoxazolidine-2-carbonyl]cyclohexyl]methyl]isoindolin-1-one]",16
18,"Cn1nccc1-c1cc(F)cc(C[C@H]2CC[C@H](C(=O)N3OCC[C@H]3c3cnccn3)CC2)c1 [compound 211, trans-[4-[[3-fluoro-5-(2-methylpyrazol-3-yl)phenyl]methyl]cyclohexyl]-[(3S)-3-pyrazin-2-ylisoxazolidin-2-yl]methanone]",20
17,"N#Cc1cc(F)cc([C@@H]2CCON2C(=O)[C@H]2CC[C@H](Cc3cc(F)c4c(c3)C(=O)NC4)CC2)c1 [compound 219, trans-3-fluoro-5-[(3S)-2-[4-[(7-fluoro-3-oxo-isoindolin-5-yl)methyl]cyclohexanecarbonyl]isoxazolidin-3-yl]benzonitrile]",3
